Laboratory results from patent publication US20100113472A1, “COMPOUNDS FOR THE TREATMENT OF OSTEOPOROSIS AND CANCERS” (ChemoCentryx, Inc., priority 2008, published 2010).

Assays:
[1] = pharmacokinetic tests conducted in animals; assay type: in vivo; settings: compared with related compounds of U.S. Publication No. 2007/0010524A1
[2] = tested on: human peripheral blood mononuclear cells (PBMC) differentiating into osteoclasts; assay: Inhibition of formation of osteoclasts in vitro; assay type: cell-based; settings: Osteoclast, 504 h, 100 nM, M-CSF and RANKL 50 ng/ml each, day 21, over the untreated control, read-out: inhibition of osteoclast formation (TRAP+ multinuclear cells)
Experimental: PBMC were prepared by layering human whole blood over a Ficoll ague plus (Amersham) gradient and centrifuging 45 minutes at 400 g. The interface of white cells is removed and washed twice with PBS, and placed in culture in RPMI with 10% FBS.
CCR1 is expressed on both osteoclast precursor cells and mature osteoclasts and modulates osteoclast formation and maturation. To evaluate the ability of the 1.016 compound to block osteoclast formation in vitro, human peripheral blood mononuclear cells (PBMC) were cultured in the presence of M-CSF (50 ng/ml) and RANKL (50 ng/ml), which induces the monocyte subpopulation to differentiate into giant multinucleated osteoclasts over 21 days. Compound 1.016 was added at a concentration of 100 nM to the culture media on day one and the compound/medium was changed twice weekly. On day 21, cells were fixed and stained for tartrate-resistant acid phosphatase (TRAP) (acid phosphatase leukocyte staining kit, Sigma, Mo.) and TRAP^+ multinuclear (3 or more nuclei) cells were quantified by light microscopy. Osteoclast formation in the presence of 1.016 was inhibited by ˜40% over the untreated control.

[3] = tested on: Rabbit Model of Destructive Joint Inflammation; assay: Rabbit model of destructive joint inflammation (rabbit LPS study); assay type: in vivo; settings: oral, 2 h before and 4 h after intra-articular LPS (10 ng); lavage 16 h after LPS
Experimental: A rabbit LPS study was conducted essentially as described in Podolin, et al. J. Immunol. 169(11):6435-6444 (2002). Female New Zealand rabbits (approximately 2 kilograms) were treated intra-articularly in both knees with LPS (10 ng). The compound of interest, for example 1.016, (formulated in 1% methocel) or vehicle (1% methocel) was dosed orally at a 5 ml/kg dose volume at two times (2 hours before the intra-articular LPS injection and 4 hours after the intra-articular LPS injection). Sixteen hours after the LPS injection, knees were lavaged and cells counts were performed. Beneficial effects of treatment were determined by reduction in the number of inflammatory cells recruited to the inflamed synovial fluid of the knee joints.

[4] = tested on: Rat Model of Collagen Induced Arthritis; assay: Rat model of collagen induced arthritis; assay type: in vivo; settings: female Lewis rats; 150 mg/kg oral, twice daily, day 9 to day 17
Experimental: A 17 day developing type II collagen arthritis study was conducted to evaluate the effects of a compound of interest on arthritis induced clinical ankle swelling. Rat collagen arthritis is an experimental model of polyarthritis that has been widely used for preclinical testing of numerous anti-arthritic agents (see Trentham, et al., J. Exp. Med. 146(3):857-868 (1977), Bendele, et al., Toxicologic Pathol. 27:134-142 (1999), Bendele, et al., Arthritis Rheum. 42:498-506 (1999)). The hallmarks of this model are reliable onset and progression of robust, easily measurable polyarticular inflammation, marked cartilage destruction in association with pannus formation and mild to moderate bone resorption and periosteal bone proliferation.
To measure the efficacy of CCR1 antagonists on the development of collagen induced arthritis in rats, compound 1.016 was evaluated in groups of 20 female Lewis rats. Animals were injected with 300 μl of Freund's Incomplete Adjuvant (Difco, Detroit, Mich.) containing 2 mg/ml bovine type II collagen (Elastin Products, Owensville, Mo.) at the base of the tail and 2 sites on the hack on days 0 and 6. Dosing by oral route (150 mg/kg; oral, twice daily) was initiated on day 9 of established disease (day 0 of arthritis) and continued through day 17 (day 7 of arthritis). On arthritis day 7, animals were euthanized for tissue collection. Hind paws were transected at the level of the medial and lateral malleolus, weighed and placed in formalin for microscopy. Osteoclasts were counted in 5, 400× magnification fields in ankle and knee of each joint and the mean number for the joint determined. Collagen arthritic ankles are also given scores of 0-5 (0 indicating normal and 5 indicating severe) for bone resorption according to established criteria.

- AUC [1]: increased
- Cmax [1]: increased
- oral bioavailability [1]: improved
Structure (SMILES): COc1cc(N2CCN(C(=O)Cn3nc(-c4ncc[nH]4)c4cccnc43)CC2)ccc1Cl [compound 1.016, 1-[4-(4-Chloro-3-methoxy-phenyl)-piperazin-1-yl]-2-[3-(1H-imidazol-2-yl)-pyrazolo[3,4-b]pyridin-1-yl]-ethanone]
- inhibition at 0.1 µM [2]: ~40%
- recruited inflammatory cells in synovial fluid of the knee joints [3]: significant reduction
- bone resorption (score 0-5) [4]: reduction in bone resorption
- clinical changes associated with established type II collagen arthritis [4]: effectively inhibited
- joint swelling assessed by caliper measurements [4]: reduction in joint swelling
- osteoclasts in ankle and knee (histopathology) [4]: reduction of osteoclasts
